Laboratory results published in patent US5807671A (priority 1995, dated 1998).
“Also recorded” adds a separate entry of the source.

Assays:
[1] = tested on: "atypical" BuChE; settings: cited from earlier work
[2] = tested on: "atypical" BuChE; settings: cited from earlier work; remark: listed apart in the source
[3] = tested on: "atypical" BuChE; settings: cited from earlier work; remark: listed apart in the source
[4] = tested on: serum BuChE; settings: in vivo; cited from earlier work
[5] = tested on: Parkinson's disease; settings: human, in vivo; cited from earlier work
[6] = tested on: BuChE of heterozygotes / 1:1 mixture of normal and "atypical" BuChE
[7] = biological target: serum BuChE "atypical" (Homo sapiens, UniProt P06276, D98G)
Sequence of serum BuChE "atypical" (P06276 29-602 D98G limits assumed): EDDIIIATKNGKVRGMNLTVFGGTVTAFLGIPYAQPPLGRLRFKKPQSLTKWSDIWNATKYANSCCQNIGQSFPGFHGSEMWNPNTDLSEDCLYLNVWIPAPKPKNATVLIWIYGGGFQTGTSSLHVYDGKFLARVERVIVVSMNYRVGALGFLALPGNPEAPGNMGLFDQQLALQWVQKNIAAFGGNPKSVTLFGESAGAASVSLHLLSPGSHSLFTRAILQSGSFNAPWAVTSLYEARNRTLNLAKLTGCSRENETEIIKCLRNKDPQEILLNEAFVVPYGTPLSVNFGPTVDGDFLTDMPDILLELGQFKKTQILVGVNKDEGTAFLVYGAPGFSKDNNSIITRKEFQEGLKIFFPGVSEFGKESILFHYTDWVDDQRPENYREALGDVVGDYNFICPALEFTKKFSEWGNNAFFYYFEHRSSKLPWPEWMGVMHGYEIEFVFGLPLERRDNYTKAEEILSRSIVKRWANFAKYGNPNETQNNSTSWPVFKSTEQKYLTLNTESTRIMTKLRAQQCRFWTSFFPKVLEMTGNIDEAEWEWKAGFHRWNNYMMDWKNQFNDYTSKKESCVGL

[8] = human, in vivo; cited from earlier work
[9] = tested on: Alzheimer's disease; settings: in vivo; cited from earlier work
[10] = tested on: "atypical" serum BuChE; assay type: biochemical, human
[11] = tested on: AChE; assay type: biochemical, human
[12] = biological target: BuChE "atypical" (Homo sapiens, UniProt P06276, D98G)
Sequence of BuChE "atypical" (P06276 29-602 D98G limits assumed): as above

[13] = tested on: Alzheimer's disease; settings: in vivo; cited from earlier work; remark: listed apart in the source
[14] = biological target: BuChE normal (Homo sapiens, UniProt P06276); assay type: biochemical
Sequence of BuChE normal (P06276 29-602): as the sequence (P06276 29-602 D98G limits assumed) above, with G70D counted along it

[15] = tested on: normal and "atypical" BuChE; assay type: biochemical, human
[16] = biological target: AChE E6 (Homo sapiens, UniProt P22303); assay type: biochemical
Sequence of AChE E6 (P22303 32-614): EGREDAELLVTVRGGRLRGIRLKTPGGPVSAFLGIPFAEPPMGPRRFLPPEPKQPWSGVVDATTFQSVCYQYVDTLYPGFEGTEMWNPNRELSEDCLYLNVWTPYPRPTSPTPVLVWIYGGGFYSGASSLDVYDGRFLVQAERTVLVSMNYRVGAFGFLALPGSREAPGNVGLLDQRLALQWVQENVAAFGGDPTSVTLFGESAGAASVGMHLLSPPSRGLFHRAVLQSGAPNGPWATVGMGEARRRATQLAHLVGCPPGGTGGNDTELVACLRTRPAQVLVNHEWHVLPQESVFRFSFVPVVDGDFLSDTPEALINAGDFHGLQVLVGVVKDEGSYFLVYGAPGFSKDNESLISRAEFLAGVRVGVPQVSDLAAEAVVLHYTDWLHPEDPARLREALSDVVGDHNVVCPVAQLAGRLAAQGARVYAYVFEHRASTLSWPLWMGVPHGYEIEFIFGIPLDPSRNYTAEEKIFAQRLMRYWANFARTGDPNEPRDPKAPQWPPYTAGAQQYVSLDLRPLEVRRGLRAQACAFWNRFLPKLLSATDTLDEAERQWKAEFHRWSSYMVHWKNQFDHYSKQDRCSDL

[17] = biological target: AChE E5 (Homo sapiens, UniProt P22303); assay type: biochemical
Sequence of AChE E5 (P22303-4 with tags, fused parts or gaps limits assumed): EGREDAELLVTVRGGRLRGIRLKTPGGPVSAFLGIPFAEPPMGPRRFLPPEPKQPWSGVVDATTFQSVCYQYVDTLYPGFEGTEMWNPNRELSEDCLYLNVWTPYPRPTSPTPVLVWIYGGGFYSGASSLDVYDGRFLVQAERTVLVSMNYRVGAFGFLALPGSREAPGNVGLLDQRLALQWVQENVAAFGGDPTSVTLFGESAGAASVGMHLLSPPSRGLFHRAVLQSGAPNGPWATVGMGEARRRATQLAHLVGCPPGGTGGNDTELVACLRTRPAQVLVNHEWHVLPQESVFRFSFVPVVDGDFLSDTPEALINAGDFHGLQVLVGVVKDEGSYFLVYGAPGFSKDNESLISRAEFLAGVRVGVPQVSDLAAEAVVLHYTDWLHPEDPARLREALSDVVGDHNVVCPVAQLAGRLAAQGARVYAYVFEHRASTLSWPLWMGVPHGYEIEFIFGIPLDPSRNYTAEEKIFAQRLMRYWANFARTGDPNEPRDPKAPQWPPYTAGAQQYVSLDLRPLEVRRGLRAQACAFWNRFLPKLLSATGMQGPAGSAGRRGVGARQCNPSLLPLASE

[18] = in vivo
[19] = tested on: BuChE F^329 C; assay type: biochemical, human
[20] = tested on: BuChE L^286 Q; assay type: biochemical, human
[21] = biological target: BuChE L^286 K (Homo sapiens, UniProt P06276, L314K); assay: biochemical; assay type: biochemical
Sequence of BuChE L^286 K (P06276 29-602 L314K limits assumed): as the sequence (P06276 29-602 D98G limits assumed) above, with G70D, L286K counted along it

[22] = tested on: BuChE D^70 G + S^425 P; assay type: biochemical, human
[23] = tested on: BuChE D^70 G; assay type: biochemical, human
[24] = biological target: diisopropylphosphoryl-AChE (E5) (Homo sapiens, UniProt P22303)
Sequence of diisopropylphosphoryl-AChE (E5) (P22303-4 with tags, fused parts or gaps limits assumed): as the sequence (P22303-4 with tags, fused parts or gaps limits assumed) above

[25] = biological target: purified diethylphosphoryl-BuChE; settings: cited from earlier work
[26] = biological target: diisopropylphosphoryl-BuChE (Homo sapiens, UniProt P06276); assay: biochemical
Sequence of diisopropylphosphoryl-BuChE (P06276 29-602): as the sequence (P06276 29-602 D98G limits assumed) above, with G70D counted along it

[27] = tested on: BuChE L^286 D; assay type: biochemical, human
[28] = biological target: diisopropylphosphoryl-AChE (E6) (Homo sapiens, UniProt P22303)
Sequence of diisopropylphosphoryl-AChE (E6) (P22303 32-614): as the sequence (P22303 32-614) above

[29] = human, in vivo, iv; cited from earlier work
[30] = tested on: BuChE D^70 G + Y^114 H + S^425 P; assay type: biochemical, human
[31] = tested on: BuChE F^329 D; assay type: biochemical, human
[32] = tested on: BuChE S^425 P; assay type: biochemical, human
[33] = tested on: BuChE L^286 R; assay type: biochemical, human
[34] = tested on: BuChE F^329 R; assay type: biochemical, human
[35] = biological target: diisopropylphosphoryl-Chimera; assay type: biochemical, human
[36] = tested on: BuChE D^70 G + Y^114 H; assay type: biochemical, human
[37] = tested on: BuChE F^329 Q; assay type: biochemical, human
[38] = tested on: horse serum BuChE; settings: cited from earlier work
[39] = tested on: "atypical" BuChE; assay type: biochemical, human
[40] = in vivo; remark: listed apart in the source
[41] = tested on: ChEs (all of the examined enzymes); assay type: biochemical, human
[42] = tested on: REM sleep; settings: in vivo; cited from earlier work
[43] = tested on: BuChE from heterozygous serum; assay type: biochemical, human; settings: 30 min, 10 µM
[44] = tested on: normal serum BuChE; assay type: biochemical, human; settings: 30 min, 10 µM

In the case of `CCCCOc1cc(C(=O)NCCN(CC)CC)c2ccccc2n1` [dibucaine], the “hydrolysis by "atypical" BuChE” value [1] is given as “inability of the affected enzyme to hydrolyze”.
In the case of `CC(C)NP(=O)(NC(C)C)OP(=O)(NC(C)C)NC(C)C` [iso-OMPA], the “sensitivity of the atypical variant to inhibitors” value [2] is listed as “much less sensitive”.
For `CC(=O)Oc1ccccc1C(=O)O` [aspirin], the “Km with "atypical" variant, higher than with usual enzyme” value (shortened to “Km with "atypical" variant, higher than”) [3] is listed as ~4 fold.
For `CCN(CC)CCOC(=O)c1ccc(N)cc1` [procaine], the “Km with "atypical" variant, higher than” value [3] is listed as 15 fold.
In the case of `Nc1c2c(nc3ccccc13)CCCC2` [Tacrine, 1,2,3,4-tetrahydro-9 aminoacridine], the “serum BuChE activity” value [4] is given as “transient drop in serum BuChE activity”, the “symptoms of PD patient” value [5] is given as “worsening of the symptoms” and the “inhibition curves of mixtures of normal and "atypical" enzyme” value [6] is given as “expected intermediary inhibition curves”. The “inhibition in the presence of 1 μm tacrine” value [6] was “intermediate levels of activity”, the “capacity of "atypical" BuChE to interact with tacrine, compared with the normal enzyme” value [7] was “drastic reduction” and the “cases in which aminotransferase reached 20 times the upper limit of normal” value [8] was 2%. For the same molecule, the “patients with severe cholinergic side-effects” value [8] was “over 10%”, the “serum alanine aminotransferase level in 2% of the cases” value [8] was 20 times the upper limit of normal and the “serum alanine aminotransferase level, usually” value [8] was “less than three times the upper limit of normal value”. For the same molecule, the “improvement in Alzheimer's disease patients” value [9] was “statistically significant, dose-related improvements”.
For `CNC(=O)Oc1ccc2c(c1)[C@]1(C)CCN(C)[C@@H]1N2C` [physostigmine], the “IC50, higher for "atypical" than wild-type BuChE” value [2] is given as “at least 10 fold”, the “Ki, higher for "atypical" than wild-type BuChE” value [2] is given as “at least 10 fold” and the “sensitivity of the atypical variant to inhibitors” value [2] is given as “much less sensitive”. The “reaction of "atypical" BuChE with carbamates, compared with its normal counterpart” value (“reaction … compared with its normal counterpart” for short) [10] was “much slower”, the spontaneous reactivation [11] was “up to 90%” and the “inactivation rates of "atypical" BuChE” value [12] was “considerably lower rates”. For the same molecule, the “second order rate constants, ki, for inactivation” value (from here on “second order rate constants, ki”) [12] was 2.6 × 10^4 ± 0.9 × 10^4, the “effect on cognitive functions” value [13] was “small, short-term positive effect on cognitive functions” and the “inactivation rates of common BuChE compared with AChE” value [14] was “higher than or equal to”. The “second order rate constants, ki” value [14] was 3.8 × 10^5 ± 1.6 × 10^5.
For `CN(C)C(=O)Oc1cc(OC(=O)N(C)C)cc(C(O)CNC(C)(C)C)c1` (stereo not shown) [bambuterol], the “IC50, higher for "atypical" than wild-type BuChE” value [2] is given as “at least 10 fold” and the “Ki, higher for "atypical" than wild-type BuChE” value [2] is given as “at least 10 fold”.
In the case of `CN(C)C(=O)Oc1ccc[n+](C)c1` [pyridostigmine], the reactivation [15] is reported as 10%, the “reaction … compared with its normal counterpart” value [10] is reported as “much slower” and the reactivation [11] is reported as 50%. For the same molecule, the “second order rate constants, ki” value [16] was 2.2 × 10^4, the “second order rate constants, ki” value [17] was 2.5 × 10^4 and the “adverse symptoms under pyridostigmine” value [18] was “insomnia, weight loss and general fatigue, which worsened consistently, and a deep depression”. For the same molecule, the “second order rate constants, ki” value [14] was 1.9 × 10^3 ± 0.2 × 10^3.
With `CCCCCCCNC(=O)Oc1ccc2c(c1)C1(C)CCN(C)C1N2C` (single isomer, unassigned) [N-heptyl physostigmine] the original activity regained [15] was 10%, the “reaction … compared with its normal counterpart” value [10] was “much slower” and the reactivation [11] was 5%. For the same molecule, the “inactivation rates of "atypical" BuChE” value [12] was “considerably lower rates”, the “second order rate constants, ki” value [12] was 7.7 × 10^5 ± 4.4 × 10^5 and the “second order rate constants, ki” value [16] was 1.6 × 10^6. The “second order rate constants, ki” value [17] was 1.4 × 10^6, the “inactivation rates of common BuChE compared with AChE” value [14] was “higher than or equal to” and the “second order rate constants, ki” value [14] was 1.1 × 10^7 ± 0.3 × 10^7.
In the case of `C[n+]1ccccc1C=NO` [PAM, Pyridine-2-aldoxime methiodide], the “k'r × 10^3” value [19] is reported as 14 ± 2, the “k'r × 10^3” value [20] is reported as 120 ± 20 and the Kd [21] is reported as > 5000 µM. The “Kr × 10^3” value [21] was 35 ± 27, the “k'r × 10^3” value [21] was 4 ± 1 and the “reduction in the pseudo-first order rate constant for reactivation” value [21] was 40 fold. For the same molecule, the “k'r × 10^3” value [22] was 11, the “k'r × 10^3” value [23] was 32 ± 4 and the “reactivation rate lower than wild-type BuChE” value [23] was 5 fold. For the same molecule, the “Kr × 10^3” value [24] was 10 ± 5, the “k'r × 10^3” value [24] was 8 ± 3 and the Kd [25] was 200 µM. For the same molecule, the Kd [26] was 300 µM, the “Kr × 10^3” value [26] was 220 ± 60 and the “k'r × 10^3” value [26] was 150 ± 30. For the same molecule, the “pseudo-first order rate constant for reactivation of DFP-inhibited BuChE, higher than AChE” value [26] was 25 fold, the “k'r × 10^3” value [27] was 120 ± 30 and the “Kr × 10^3” value [28] was 7 ± 3. For the same molecule, the “k'r × 10^3” value [28] was 6 ± 2, the Cmax [29] was ≤ 40 µM and the “k'r × 10^3” value [30] was 4 ± 1. The “k'r × 10^3” value [31] was 8 ± 1, the “k'r × 10^3” value [32] was 134 ± 8 and the “k'r × 10^3” value [33] was 6 ± 3. For the same molecule, the “k'r × 10^3” value [34] was 43, the Kd [35] was 340 ± 130 µM and the “Kr × 10^3” value [35] was 48 ± 20. The “k'r × 10^3” value [35] was 40 ± 18, the “reactivation rate constant lower than that of native BuChE” value [35] was 5 fold and the “k'r × 10^3” value [36] was 12 ± 5. The “k'r × 10^3” value [37] was 44 ± 15.
For `CC(=O)Oc1ccc2c3c1O[C@H]1[C@@H](OC(C)=O)C=C[C@H]4[C@@H](C2)N(C)CC[C@@]341` [heroin], the “Km with "atypical" variant, higher than” value [3] is listed as 4 fold.
In the case of `C[N+](C)(C)CCOC(=O)CCC(=O)OCC[N+](C)(C)C` [succinylcholine], the “hydrolysis by horse serum BuChE” value [38] is given as “will not hydrolyze”, the “hydrolysis by serum BuChE of H. K.” value [39] is given as “totally incapable of hydrolyzing; also recorded: cannot hydrolyze” and the post-anesthesia apnea [40] is given as “two hour post-anesthesia apnea”. For the same molecule, the “hydrolysis by "atypical" BuChE” value [1] was “unable to hydrolyze; also recorded: inability of the affected enzyme to hydrolyze”.
In the case of `CCN(C)C(=O)Oc1cccc([C@H](C)N(C)C)c1` [SDZ ENA-713], the “serum BuChE activity” value [4] is listed as “transient drop in serum BuChE activity”, the reactivation levels [41] is listed as ≤ 8% and the “reaction … compared with its normal counterpart” value [10] is listed as “much slower”. For the same molecule, the “decrease in BuChE activity” value ([10]; serum, 30 min, 10 µM) was “about 40%”, the “frequency of rapid eye movements during REM sleep” value [42] was “increase the frequency of rapid eye movements during REM sleep” and the “loss of BuChE activity” value [43] was 80%. For the same molecule, the “inactivation rates of "atypical" BuChE” value [12] was “considerably lower rates”, the “second order rate constants, ki” value [12] was 4.7 × 10^2 ± 4.6 × 10^2 and the “second order rate constants, ki” value [16] was 4.3 × 10^3. The “loss of BuChE activity” value [44] was 95%, the “second order rate constants, ki” value [17] was 3.3 × 10^3 and the “inactivation rates of common BuChE compared with AChE” value [14] was “higher than or equal to”. For the same molecule, the “second order rate constants, ki” value [14] was 1.4 × 10^4 ± 0.3 × 10^4.
